Drawing on PubChem BioAssay (NCI), this text covers GI50 and TGI for 18 compounds.

What all share (assay): inhibition of tumour cell growth, NCI panel, 48 h
Test [1] concerns HCT-116 colon.
The test system of test [2] is HOP-62 NSCLC.
Test [3] relates to HT29 colon.
Test [4] concerns IGROV1 ovarian.
For test [5], the system named is LOX IMVI melanoma.
Test [6] relates to MALME-3M melanoma.
Test [7] concerns OVCAR-8 ovarian.
Test [8] concerns SF-268 CNS.
Test [9] relates to SW-620 colon.
Test [10] concerns U251 CNS.

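Interpolation was linear, between the two tested concentrations surrounding the appropriate level; five concentrations were tested over 48 hours in 96-well plates. GI50: concentration for 50% inhibition of growth. TGI denotes the concentration required for complete inhibition of growth.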 Where only a bound is given, the exact number is not on record here.

Take `C=C1SC(=Nc2ccccc2Cl)N(C(=O)c2sc3ccccc3c2Cl)C12CCCCC2`: the GI50 in test [1] was 7.61 µM; in test [2], 9.08 µM; in test [3], 6.71 µM; in test [4] it was 9.66 µM; in [5], 21.8 µM; in test [6], 29.2 µM. In addition, the GI50 in test [7] was 6.62 µM; in [8], 11.7 µM; in [9], 5.87 µM; in [10], 4.42 µM. Also, the TGI in test [1], in [2], in test [3], in test [4], in [5] and in test [6] was over 100 µM in each case. Moreover, the TGI in test [7], in [8], in test [9] and in test [10] was over 100 µM throughout.
Take `CCOC(=O)C1=C(C)N(NC(N)=O)C2(N)N(NC(N)=O)C(C)=C(C(=O)OCC)C12C(=O)OCC` (configuration not stated): the TGI in test [1], in [2], in [3], in test [4], in test [5] and in test [6] was over 100 µM each time. The TGI in [7], in test [8], in test [9] and in test [10] was over 100 µM each time.
For the compound `CC([C@H]1CC=C2C3CCC4=C[C@@H](N(C)C)CC[C@]4(C)C3CC[C@@]21C)N(C)C` (some centres not stated), the GI50 in [1] is 1.07 µM; in test [2] it was 1.8 µM; in test [3], 0.455 µM; in [4], 4.88 µM; in test [5] it was 1.6 µM; in [6], 1.92 µM. The GI50 was 5.85 µM in [7], 1.98 µM in test [8], 2.49 µM in [9] and 3.21 µM in test [10]. The TGI was determined as 2.76 µM in [1]; 3.87 µM in [2]; 2.11 µM in test [3]; 3.69 µM in test [5]; 4.47 µM in test [6]; 22.3 µM in test [7]. The TGI came out at 4.71 µM in [8], 8.24 µM in test [9] and 15.4 µM in [10].
`COc1ccc(C(=O)CC2=Nc3nnc(CCCCCCCc4nnc5n4C(=O)C(CC(=O)c4ccc(OC)cc4)=N5)n3C2=O)cc1`: the TGI in test [1], in test [2], in [3], in test [4], in test [5] and in [6] was over 100 µM throughout. In addition, the TGI in [7], in test [8], in [9] and in test [10] was over 100 µM throughout.
`C[C@H]1CNC(=O)c2cnn3ccc(nc23)N[C@H](C)c2cc(F)ccc2O1`: the GI50 is 0.559 µM in [1]; 1.03 µM in test [2]; 0.457 µM in test [3]; 0.292 µM in [4]; 0.334 µM in test [5]; 16.6 µM in test [6]. Besides, the GI50 in test [7] is 2.54 µM; in [8] it was 0.809 µM; in test [9] it was 0.517 µM; in [10], 3.36 µM. The TGI in test [1] is 16.9 µM; in [2] it was over 21.5 µM; in test [4] it was 1.92 µM; in [5] it was 1.43 µM; in [6], over 100 µM; in [7], over 55.1 µM. In addition, the TGI in test [8] is 3.79 µM; in test [9] it was over 55.1 µM; in [10] it was over 100 µM.
On to `NC(N)=NC(N)=NCCCc1ccco1`, for which the GI50 was 90.2 µM in test [1]; 82.7 µM in [2]; over 500 µM in [3]; over 500 µM in test [4]; 52.2 µM in [5]; 18.7 µM in test [6]. For the same compound, the GI50 is 31.8 µM in test [7], 61.5 µM in test [8], 18.2 µM in test [9] and 150 µM in test [10]. Also, the TGI was 335 µM in test [1]; 196 µM in test [2]; over 500 µM in test [3]; over 500 µM in test [4]; 121 µM in [5]; 66.2 µM in test [6]. Also, the TGI was 190 µM in test [7], 156 µM in test [8], 125 µM in [9] and over 500 µM in [10].
In the case of `C[C@H]1COCCN1c1cc(C2(S(=O)(=O)C3CC3)CC2)nc(-c2ccc(NC(=S)NCCO)cc2)n1`, the GI50 in test [1] was 0.0985 µM; in [2], 0.0486 µM; in test [3], 0.0648 µM; in test [4], under 0.01 µM; in test [5], 0.0306 µM; in [6], under 0.01 µM. Also, the GI50 was 0.0511 µM in test [7], 0.0332 µM in test [8], 0.0634 µM in test [9] and 0.0524 µM in [10]. For the same compound, the TGI was 21.4 µM in [1]; 4.37 µM in test [2]; over 60.4 µM in test [3]; 0.119 µM in test [4]; 12.3 µM in test [5]; 0.0437 µM in [6]. Besides, the TGI in [7] is 3.06 µM; in test [8], over 41.3 µM; in [9] it was over 100 µM; in test [10], 32.2 µM.
For `C=C1C(=O)O[C@H]2[C@H]1CC/C(COC(=O)CCCc1c[nH]c3ccccc13)=C\CC[C@@]1(C)O[C@@H]21`, the GI50 in [1] is 0.963 µM; in [2], 6.54 µM; in [3] it was 1.71 µM; in test [4], 1.63 µM; in test [5], 1.55 µM; in [6], 1.79 µM. In addition, the GI50 was 3.38 µM in test [7], 1.69 µM in test [8], 1.84 µM in test [9] and 1.95 µM in test [10]. For the same compound, the TGI in [1] came to 2.36 µM; in test [2] it was 19.6 µM; in [3], 3.37 µM; in test [4], 3.61 µM; in [5] it was 2.95 µM; in test [6], 3.56 µM. Also, the TGI in [7] worked out at 11.2 µM; in test [8], 3.46 µM; in test [9], 4.36 µM; in test [10] it was 3.67 µM.
As to `O=C(c1ccccc1)c1c(C(F)(F)F)n([O-])c2cc(C(F)(F)F)ccc2[n+]1=O`, the GI50 in test [1] is 0.951 µM; in test [2], 1.83 µM; in test [3], 0.983 µM; in test [4], 0.207 µM; in test [5] it was 0.258 µM; in [6] it was 1.6 µM. Besides, the GI50 in [7] was 1.87 µM; in test [8], 1.58 µM; in test [9], 0.619 µM; in test [10], 1.54 µM. Besides, the TGI in test [1] stood at 2.36 µM; in test [2], 3.5 µM; in [3], 2.86 µM; in test [4] it was 0.489 µM; in [5], 0.745 µM; in test [6] it was 3.33 µM. The TGI was found to be 5.46 µM in [7], 3.14 µM in test [8], 1.69 µM in test [9] and 2.97 µM in test [10].
Turning to `Cc1nc(N)nc(N)c1CCCc1ccccc1`, the TGI in [1] is over 100 µM; in [2], 56.8 µM; in [3], over 100 µM; in test [4] it was over 100 µM; in test [5], over 100 µM; in test [6], 95.7 µM. Besides, the TGI in test [7], in test [8], in test [9] and in test [10] was over 100 µM each time.
In the case of `CCCCCCCC/C=C1\CCC(CN2CCOCC2)C1=O` (configuration not stated), the TGI in test [1] was determined as 13.6 µM; in test [2], 30 µM; in test [3] it was 20.5 µM; in test [4], 21 µM; in test [5] it was 9.94 µM; in [6] it was 24.7 µM. In addition, the TGI in [7] amounted to 13.8 µM; in test [8], 21.1 µM; in test [9] it was 8.39 µM; in test [10], 28 µM.
As for `C/C(CC(=O)Nc1ccccc1C)=N/NS(=O)(=O)c1ccc(C)cc1`, the TGI in test [1], in test [2], in [3], in test [4], in test [5] and in test [6] was over 100 µM each time. For the same compound, the TGI in [7], in test [8], in [9] and in test [10] was over 100 µM each time.
With `O=C(/C=C1\C(=O)N(Cc2ccccc2)c2ccccc21)c1ccc(OCCN2CCCCC2)cc1`, the GI50 in test [1] was 1.3 µM; in test [2], 18.4 µM; in test [3], 1.82 µM; in [4] it was 1.76 µM; in [5], 1.71 µM; in test [6], 1.71 µM. The GI50 was 2.13 µM in [7], 2.98 µM in test [8], 1.7 µM in test [9] and 1.91 µM in [10]. The TGI stood at 2.67 µM in test [1]; 32.4 µM in test [2]; 3.36 µM in test [3]; 3.55 µM in [4]; 3.14 µM in test [5]; 3.39 µM in test [6]. Besides, the TGI in test [7] came to 4.16 µM; in test [8] it was 10.7 µM; in [9], 3.3 µM; in [10], 3.35 µM.
Take `O=C(c1ccco1)c1c(C(F)(F)F)n([O-])c2cc(C(F)(F)F)ccc2[n+]1=O`: the GI50 in [1] is 0.23 µM; in [2] it was 0.484 µM; in [3], 1.25 µM; in [4] it was 0.822 µM; in [5], 0.299 µM; in test [6], 1.49 µM. Also, the GI50 is 0.688 µM in [7], 0.87 µM in [8], 0.498 µM in [9] and 0.46 µM in test [10]. Also, the TGI was 1.31 µM in test [1]; 1.08 µM in test [2]; 2.84 µM in test [3]; 2.52 µM in test [4]; 0.73 µM in test [5]; 3.43 µM in test [6]. Also, the TGI in [8] worked out at 2.66 µM; in test [9] it was 1.1 µM; in [10], 0.951 µM.
For `CC(=O)O[C@H]1C(=O)[C@@]2(C)[C@H]([C@H](OC(=O)c3ccccc3)[C@]3(O)C[C@H](OC(=O)[C@H](OC(=O)OC[C@H]4COC(C)(C)O4)[C@@H](NC(=O)c4ccccc4)c4ccccc4)C(C)=C1C3(C)C)[C@]1(OC(C)=O)CO[C@@H]1C[C@@H]2O`, the GI50 in test [1] was 0.00596 µM; in [2], 0.0596 µM; in test [3], 0.0059 µM; in test [4], 0.0494 µM; in test [5], 0.014 µM; in test [6], 0.227 µM. For the same compound, the GI50 is 0.0598 µM in test [7], 0.165 µM in test [8], 0.0138 µM in test [9] and 0.0288 µM in [10]. Also, the TGI in [1], in [2], in test [3], in test [4], in test [5] and in test [6] was over 33.3 µM throughout. Also, the TGI in test [7], in [8], in test [9] and in test [10] was over 33.3 µM throughout.
For `COc1cc(C(C)c2cc3c(cc2OCCNC(=O)COc2cc4c(cc2C(C)c2cc(OC)c(OC)c(OC)c2)OCO4)OCO3)cc(OC)c1OC` (configuration not stated), the TGI in test [1], in test [2], in [3], in [4], in [5] and in test [6] was over 100 µM each time. The TGI in test [7], in test [8], in [9] and in test [10] was over 100 µM throughout.
For the compound `CC(C(=O)c1ccccc1)C1(O)C(=O)Nc2ccc(Cl)cc21` (configuration not stated), the TGI in test [1], in test [2], in test [3], in test [4], in test [5] and in test [6] was over 100 µM in each case. Moreover, the TGI in test [7], in [8], in test [9] and in test [10] was over 100 µM each time.
In the case of `O=S(=O)(N=NC=C1c2ccccc2N(O)c2ccccc21)c1ccc(Cl)cc1`, the TGI in [1], in [2], in [3], in [4], in test [5] and in test [6] was over 100 µM throughout. The TGI in test [7], in [8], in test [9] and in test [10] was over 100 µM throughout.
